Values quoted from earlier work, collected in patent publication US20010046548A1, “Anticholesterolemic edible oil” (priority 1998, published 2001).

SMILES | absorption (in vivo) | fraction absorbed (ingested, small intestine)
CC[C@H](CC[C@@H](C)[C@H]1CC[C@H]2[C@@H]3CC[C@H]4C[C@@H](O)CC[C@]4(C)[C@H]3CC[C@]12C)C(C)C [sitostanol] | completely unabsorbed | –
CC[C@H](CC[C@@H](C)[C@H]1CC[C@H]2[C@@H]3CC=C4C[C@@H](O)CC[C@]4(C)[C@H]3CC[C@]12C)C(C)C [beta-sitosterol] | – | less than 5%
